pIC50: −log10 of the molar value.
Experiments:
recombinant human HDAC6 = target: T1, recombinant human HDAC6 (Homo sapiens, UniProt Q9UBN7); experiment: Enzymatic screening on recombinant human HDAC6; type: biochemical; conditions: Table 2; read-out: HDAC6 IC50
T1 sequence (Q9UBN7 1-1215): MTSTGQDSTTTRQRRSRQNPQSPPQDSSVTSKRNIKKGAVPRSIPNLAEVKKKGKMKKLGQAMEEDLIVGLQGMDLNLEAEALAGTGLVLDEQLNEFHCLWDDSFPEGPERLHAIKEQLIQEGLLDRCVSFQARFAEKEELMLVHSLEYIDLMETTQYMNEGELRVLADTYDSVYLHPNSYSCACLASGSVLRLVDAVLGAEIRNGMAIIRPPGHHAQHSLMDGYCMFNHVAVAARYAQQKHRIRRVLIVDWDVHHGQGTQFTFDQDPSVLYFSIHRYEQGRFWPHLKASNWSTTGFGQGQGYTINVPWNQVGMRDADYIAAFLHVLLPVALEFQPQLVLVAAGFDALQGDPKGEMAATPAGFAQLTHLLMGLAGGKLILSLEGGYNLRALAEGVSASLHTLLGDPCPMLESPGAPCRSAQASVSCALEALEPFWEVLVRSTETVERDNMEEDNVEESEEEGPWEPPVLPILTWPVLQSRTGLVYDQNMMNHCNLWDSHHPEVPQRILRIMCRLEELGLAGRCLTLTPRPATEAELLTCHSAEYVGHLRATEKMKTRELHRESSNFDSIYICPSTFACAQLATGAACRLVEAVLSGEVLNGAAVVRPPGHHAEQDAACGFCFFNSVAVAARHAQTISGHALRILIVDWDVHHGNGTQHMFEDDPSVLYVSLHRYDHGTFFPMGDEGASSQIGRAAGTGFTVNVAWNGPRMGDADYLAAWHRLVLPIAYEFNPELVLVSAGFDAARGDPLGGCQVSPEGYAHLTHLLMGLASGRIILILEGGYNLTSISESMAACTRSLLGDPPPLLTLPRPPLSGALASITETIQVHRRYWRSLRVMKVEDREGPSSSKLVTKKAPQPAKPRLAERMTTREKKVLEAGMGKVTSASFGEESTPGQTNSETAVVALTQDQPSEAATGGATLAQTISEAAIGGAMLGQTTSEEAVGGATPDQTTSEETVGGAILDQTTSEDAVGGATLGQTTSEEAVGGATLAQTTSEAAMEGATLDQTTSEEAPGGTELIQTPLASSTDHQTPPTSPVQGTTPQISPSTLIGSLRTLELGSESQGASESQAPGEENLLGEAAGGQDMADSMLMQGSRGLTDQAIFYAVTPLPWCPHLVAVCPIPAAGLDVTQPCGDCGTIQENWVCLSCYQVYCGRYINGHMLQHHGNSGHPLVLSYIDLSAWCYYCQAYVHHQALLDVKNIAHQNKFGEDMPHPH
Procedure: Enzymatic activity on recombinant human HDAC6 and HDAC3 was evaluated (Table 2) for each synthesized compound.
After a period of incubation at 30° C. (incubation times vary for different isoforms and are shown in table 1) 25 μL of solution containing the substrate were added. As substrate, FLUOR DE LYS® deacetylase substrate (Enzo Life Sciences, cat #BML-K1104, FdL), FLUOR DE LYS®-Green substrate (Enzo Life Sciences, cat #BML-K1572 FdL_G) and trifluoroacetyl-L-lysine (Tfal)-2× concentrated solution in 25 mM Tris-HCl, pH 8, 130 mM NaCl 0.05% Tween-20 10% glycerol) were used. Following a reaction period at 30° C.

[1] = Stability to Phase I metabolism in rat S9 liver fraction; type: in vitro ADME; conditions: after 90 min, 37° C.
Procedure: Test compounds were incubated in rat and human liver S9 fraction at 37° C. up to 90 minutes in order to evaluate their stability to Phase I metabolism by hepatic enzymes. […] The reaction was stopped placing samples on ice bath and adding acidified acetonitrile. After centrifugation (10 minutes at 14000 rpm) an aliquot of the supernatant was diluted water, filtered with 0.45 μm regenerated cellulose syringe filters and injected in HPLC-UV or in LC-MS/MS. The percentages of the amount remaining at the various incubation times with respect to the initial amount were calculated. The intrinsic clearance was also calculated.

Stability in rat plasma = type: in vitro ADME; conditions: after 4 hours, 37° C.
Procedure: In order to evaluate the stability to circulating enzymes, test compounds were incubated in human and rat plasma at 37° C. in a thermostated oscillating bath. Each test compound was incubated at μM (50 μM when the samples were analysed by UV/HPLC, 1 or 2 μM when the samples were analysed by LC-MS/MS) concentration for 0, 15, 30 min and 1, 2 and 4 hours. The reaction was stopped placing tubes on ice bath and adding acidified acetonitrile. After centrifugation for 10 minutes at 14000 rpm, an aliquot of the supernatant was diluted with water, filtered with 0.45 μm syringe filters and injected in HPLC-UV or in LC-MS/MS. The percentages of amount remaining at the various times of incubation with respect to initial amount were calculated. The half-life in plasma was also calculated.

| pIC50 (recombinant human HDAC6) | residual percentage in rat S9 fraction [1] | residual percentage in rat plasma (Stability in rat plasma) | SMILES |
| --- | --- | --- | --- |
| 7.85 | 12% | 85% | O=C(NO)c1cc(F)c(Sc2nnc(-c3ccccn3)n2Cc2ccco2)c(F)c1 [comp. 140, 3,5-difluoro-4-[[4-(2-furylmethyl)-5-(2-pyridyl)-1,2,4-triazol-3-yl]sulfanyl]benzenecarbohydroxamic acid] |
| 7.15 | 44% | 101% | Cc1ccc(-c2cc(-c3nnc(Sc4ccc(C(=O)NO)cc4)n3C)c3ccccc3n2)cc1 [comp. 67, 4-[[4-methyl-5-[2-(p-tolyl)-4-quinolyl]-1,2,4-triazol-3-yl]sulfanyl]benzenecarbohydroxamic acid] |
| 7.85 | 0% | 76% | O=C(NO)c1ccc(Cn2nnc(-c3ccc(Cl)cc3)n2)cc1 [comp. 31, 4-[[5-(4-chlorophenyl)tetrazol-2-yl]methyl]benzenecarbohydroxamic acid] |
| 7.92 | 79% |  | O=C(NO)c1cc(F)c(Sc2nnc(-c3ccc(F)cc3)n2CCN2CCOCC2)c(F)c1 [comp. 138, 3,5-difluoro-4-[[5-(4-fluorophenyl)-4-(2-morpholinoethyl)-1,2,4-triazol-3-yl]sulfanyl]benzenecarbohydroxamic acid] |
| 8.22 | 46% |  | O=C(NO)c1ccc(Cn2nnc(-c3cc4ccccc4s3)n2)cc1 [comp. 55, 4-[[5-(benzothiophen-2-yl)tetrazol-2-yl]methyl]benzenecarbohydroxamic acid] |
| 8.30 | 16% |  | O=C(NO)c1ccc(Cn2nnc(-c3csc4ccccc34)n2)cc1 [comp. 42, 4-[[5-(benzothiophen-3-yl)tetrazol-2-yl]methyl]benzenecarbohydroxamic acid] |
| 8.00 | 1% |  | O=C(NO)c1ccc(Cn2nnc(-c3ccc(Cl)cc3Cl)n2)cc1 [comp. 38, 4-[[5-(2,4-dichlorophenyl)tetrazol-2-yl]methyl]benzenecarbohydroxamic acid] |
| 6.94 |  |  | COc1ccc(CCC(=O)N[C@@H](Cc2cscn2)c2nc(Cc3ccc(C(=O)NO)cc3)no2)cc1OC [comp. 21, 3-(3,4-dimethoxyphenyl)-N-[(1S)-1-[3-[[4-(hydroxycarbamoyl)phenyl]methyl]-1,2,4-oxadiazol-5-yl]-2-thiazol-4-yl-ethyl]propanamide] |
| 7.74 | 0% |  | CSc1sc(-c2nnn(Cc3ccc(C(=O)NO)cc3)n2)c2c1C(=O)CC(C)(C)C2 [comp. 54, 4-[[5-(6,6-dimethyl-3-methylsulfanyl-4-oxo-5,7-dihydro-2-benzothiophen-1-yl)tetrazol-2-yl]methyl]benzenecarbohydroxamic acid] |
| 6.57 |  |  | O=C(NO)c1ccc(Cn2nnnc2-c2ccc(S(F)(F)(F)(F)F)cc2)cc1 [comp. 111, 4-[[5-[4-(pentafluoro-lambda6-sulfanyl)phenyl]tetrazol-1-yl]methyl]benzenecarbohydroxamic acid] |
| 7.60 |  |  | O=C(NO)c1ccc(Cn2nnc(Cc3ccccn3)n2)cc1 [comp. 132, 4-[[5-(2-pyridylmethyl)tetrazol-2-yl]methyl]benzenecarbohydroxamic acid;2,2,2-trifluoroacetic acid] |
| 7.11 |  |  | O=C(NO)c1ccc(Sc2nnc(Cc3ccccc3)n2-c2ccc(F)cc2)cc1 [comp. 27, 4-[[5-benzyl-4-(4-fluorophenyl)-1,2,4-triazol-3-yl]sulfanyl]benzenecarbohydroxamic acid;2,2,2-trifluoroacetic acid] |
| 8.40 |  |  | Cc1ccc(-c2nnn(Cc3ccc(C(=O)NO)cc3)n2)s1 [comp. 41, 4-[[5-(5-methyl-2-thienyl)tetrazol-2-yl]methyl]benzenecarbohydroxamic acid] |
| 6.46 |  |  | O=C(NO)c1ccc(Cc2nc(-c3cccs3)nn2-c2ccccn2)cc1 [comp. 52, 4-[[2-(2-pyridyl)-5-(2-thienyl)-1,2,4-triazol-3-yl]methyl]benzenecarbohydroxamic acid] |
| 8.15 |  |  | Cn1c(Sc2c(F)cc(C(=O)NO)cc2F)nnc1-c1ccc(CN2CCCC2)o1 [comp. 207, 3,5-difluoro-4-[[4-methyl-5-[5-(pyrrolidin-1-ylmethyl)-2-furyl]-1,2,4-triazol-3-yl]sulfanyl]benzenecarbohydroxamic acid] |
| 8.05 |  |  | O=C(NO)c1ccc(Cn2nnnc2-c2ccc(C(F)(F)F)cn2)cc1 [comp. 127, 4-[[5-[5-(trifluoromethyl)-2-pyridyl]tetrazol-1-yl]methyl]benzenecarbohydroxamic acid] |
| 6.59 |  |  | N[C@@H](Cc1cscn1)c1nc(Cc2ccc(C(=O)NO)cc2)no1 [comp. 48, (S)-4-((5-(1-amino-2-(thiazol-4-yl)ethyl)-1,2,4-oxadiazol-3-yl)methyl)-N-hydroxybenzamide 2,2,2-trifluoroacetate] |
| 8.30 |  |  | O=C(NO)c1ccc(Cn2nnc(-c3ccccc3F)n2)cc1 [comp. 46, 4-[[5-(2-fluorophenyl)tetrazol-2-yl]methyl]benzenecarbohydroxamic acid] |
| 6.79 |  |  | O=C(NO)c1ccc(Cn2nnnc2-c2cccc(S(F)(F)(F)(F)F)c2)cc1 [comp. 107, 4-[[5-[3-(pentafluoro-lambda6-sulfanyl)phenyl]tetrazol-1-yl]methyl]benzenecarbohydroxamic acid] |
| 6.59 |  |  | COc1ccc(Cc2nnc(-c3ccc(C(=O)NO)cc3)o2)cc1OC [comp. 26, 4-[5-[(3,4-dimethoxyphenyl)methyl]-1,3,4-oxadiazol-2-yl]benzenecarbohydroxamic acid] |
| 7.41 |  |  | O=C(NO)c1ccc(Cn2nnnc2-c2ccco2)cc1 [comp. 86, 4-[[5-(2-furyl)tetrazol-1-yl]methyl]benzenecarbohydroxamic acid] |
| 6.43 |  |  | O=C(NO)c1ccc(Cc2nc(-c3ccc(Cl)cc3)nn2Cc2ccccc2)cc1 [comp. 51, 4-[[2-benzyl-5-(4-chlorophenyl)-1,2,4-triazol-3-yl]methyl]benzenecarbohydroxamic acid] |
| 7.92 |  |  | O=C(NO)c1cc(F)c(Sc2nnc(-c3cccs3)n2Cc2ccco2)c(F)c1 [comp. 144, 3,5-difluoro-4-[[4-(2-furylmethyl)-5-(2-thienyl)-1,2,4-triazol-3-yl]sulfanyl]benzenecarbohydroxamic acid] |
| 8.52 |  |  | O=C(NO)c1ccc(Cn2nnc(-c3scc4c3OCCO4)n2)cc1 [comp. 43, 4-[[5-(2,3-dihydrothieno[3,4-b][1,4]dioxin-5-yl)tetrazol-2-yl]methyl]benzenecarbohydroxamic acid] |
| 6.17 |  |  | O=C(NO)c1ccc(Nc2nnc(-c3cccc(S(=O)(=O)N4CCCC4)c3)o2)cc1 [comp. 63, 4-[[5-(3-pyrrolidin-1-ylsulfonylphenyl)-1,3,4-oxadiazol-2-yl]amino]benzenecarbohydroxamic acid] |

Reference: patent US11351178B2, “Selective HDAC6 inhibitors” (ITALFARMACO S.P.A., priority 2017, dated 2022)
